Measured values published in BindingDB's records for doi:10.1021/acsmedchemlett.9b00286 (Bristol Myers Squibb, 2019).

Test: Inhibition of NS5A in HCV genotype 1b assessed as decrease in viral replication

## COC(=O)N[C@H](C(=O)N1CCC[C@H]1c1nc(-c2ccc(-c3ccc(-c4c[nH]c([C@@H]5CCCN5C(=O)[C@@H](NC(=O)OC)C(C)C)n4)cc3)cc2)c[nH]1)C(C)C [BMS-790052]
  EC50: 4 pM
